Laboratory results: patent US20070037785A1, “Novel dipeptidyl peptidase IV inhibitors used for functionally influencing different cells and treating immunological, infammatory, neuronal, and other diseases” (priority 2003, published 2007)

Target: dipeptidyl peptidase IV (Homo sapiens, UniProt P27487)
Test: biochemical
Conditions: values marked with "*" are ID50 values; read-out: IC50DPIV, values marked with "*" = ID50

dipeptidyl peptidase IV, sequence (P27487 whole entry, species assumed): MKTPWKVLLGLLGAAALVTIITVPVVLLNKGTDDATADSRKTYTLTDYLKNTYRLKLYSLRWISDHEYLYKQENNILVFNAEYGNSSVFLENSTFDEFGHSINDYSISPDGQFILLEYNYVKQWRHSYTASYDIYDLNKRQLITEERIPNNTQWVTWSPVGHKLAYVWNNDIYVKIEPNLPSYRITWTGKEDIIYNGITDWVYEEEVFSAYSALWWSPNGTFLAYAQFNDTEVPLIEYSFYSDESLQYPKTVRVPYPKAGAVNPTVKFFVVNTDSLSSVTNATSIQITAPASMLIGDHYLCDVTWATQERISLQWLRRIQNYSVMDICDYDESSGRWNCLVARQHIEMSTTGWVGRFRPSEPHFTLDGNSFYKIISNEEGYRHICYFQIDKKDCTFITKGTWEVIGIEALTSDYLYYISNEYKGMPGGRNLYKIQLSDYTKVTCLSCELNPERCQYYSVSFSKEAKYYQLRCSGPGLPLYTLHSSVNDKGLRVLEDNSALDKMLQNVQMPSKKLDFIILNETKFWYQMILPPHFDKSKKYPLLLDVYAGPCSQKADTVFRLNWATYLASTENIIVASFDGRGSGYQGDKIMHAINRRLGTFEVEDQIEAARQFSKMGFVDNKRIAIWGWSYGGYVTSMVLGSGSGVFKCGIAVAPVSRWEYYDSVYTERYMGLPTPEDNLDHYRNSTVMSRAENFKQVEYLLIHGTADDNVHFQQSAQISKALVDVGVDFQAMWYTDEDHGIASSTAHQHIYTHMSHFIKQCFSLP

SMILES	IC50 [µM]
O=C(CCCCC(=O)N/N=C/c1ccc(OC(=O)c2cc([N+](=O)[O-])cc([N+](=O)[O-])c2)cc1)N/N=C/c1ccc(OC(=O)c2cc([N+](=O)[O-])cc([N+](=O)[O-])c2)cc1 [D10.001]	1
Nc1nc2ccc(S(=O)(=O)c3ccc4nc(N)sc4c3)cc2s1 [D3.118]	417
COc1cc(OC)cc(N2C(=O)CSCC2=O)c1 [D4.005]	3.8
CC12NCC(c3ccccc3)CC1O2 (stereo not shown) [D5.047]	96.6
CCOC(=O)n1ccc(C(=O)Nc2ccccn2)n1 [D2.007]	148

The next lines start with the values.

IC50 [µM]	SMILES
92.2	COC(=O)c1cccc(NC(=O)/C(=C\c2ccc3c(c2)OCO3)NC(=O)c2ccc(Br)o2)c1 [D12.043]
255	CCCc1c(C)nc(N)c(C#N)c1-c1ccccc1 [D4.104]
243	COC(=O)c1ccc(/C=N/NC(=O)c2cc(C34CC5CC(CC(C5)C3)C4)n[nH]2)cc1 [D10.129]
233	Cc1ccc(C)c(NCC(=O)N/N=C\c2cc([N+](=O)[O-])ccc2N2CCOCC2)c1 [D10.125]
69.8	CCCn1c(N2CCN(CC(=O)Nc3c(C(=O)OCC)[nH]c4ccc(F)cc34)CC2)nc2c1c(=O)[nH]c(=O)n2C [D13.004]
458	COc1cccc(/C=N/NC(=O)c2ccc(OCc3cccc(Br)c3)cc2)c1OC [D10.140]
83.3	CCOC(=O)CC(N)c1ccc(OC)cc1 (stereo not shown) [D13.006]
394	N#C/C(=C\c1ccc(-c2ccc(Cl)cc2)o1)C(=O)Nc1cccc([N+](=O)[O-])c1 [D4.114]
218	CCOc1cc(/C=N/NC(=O)c2ccccc2)ccc1O [D10.123]
361	CS(=O)(=O)N1CCN(c2ccc([N+](=O)[O-])c(NCc3ccc(Cl)cc3)c2)CC1 [D5.053]
71.3	CC(=O)Nc1ccc(Nc2ccc(N3C(=O)CCCC3=O)cc2[N+](=O)[O-])cc1 [D4.079]
231	CN(Cc1ccccc1)c1ccc(N2C(=O)CCCC2=O)cc1[N+](=O)[O-] [D4.101]
116	O=C(N/N=C/c1ccc(O)c(O)c1)c1cccc([N+](=O)[O-])c1 [D10.111]
465	Cc1cc(NNC(=O)COc2ccc(Cl)cc2Cl)nc(NS(=O)(=O)c2ccccc2)n1 [D9.015]
284	COc1ccc(NC(=O)CSc2nnc3n2-c2sc4c(c2C(=O)C3CCc2ccccc2)CC(C)(C)OC4)cc1 (stereo not shown) [D6.126]
361	CS(=O)(=O)N1CCN(c2ccc([N+](=O)[O-])c(NCc3ccc(Cl)cc3)c2)CC1 [D4.112]

Same assay, conditions: values without "*" = IC-50; read-out: IC50DPIV

SMILES	IC50 [µM]
O=C1C=C(c2cccc([N+](=O)[O-])c2)C(=O)N1c1ccc(Cl)cc1 [D4.016]	12.3
Cc1ccc(C(=O)N/C(=C/c2ccco2)C(=O)N(C)C)cc1 [D6.091]	47.7
COC(=O)C(CC(C)C)Nc1ccc(N2C(=O)CCCC2=O)cc1[N+](=O)[O-] (stereo not shown) [D4.021]	15.4
N#CC1=C(N)C(C#N)(C#N)C(c2ccccc2F)C2CNCC=C12 (stereo not shown) [D4.009]	7.4
CC(C)(C)C1CCc2c(sc(NC(=O)C(C(F)(F)F)C(F)(F)F)c2C#N)C1 (stereo not shown) [D3.092]	101
C=CCOC(=O)c1cc(-c2ccc(/C=C3/C(=O)N(CCCO)C(=O)C(C#N)=C3C)o2)ccc1Cl [D6.065]	44.6
CCC(=O)Oc1ccc2c(c1)OC1(OC(C)=O)OC(C)CC1=C2C (stereo not shown) [D3.047]	37.4
N#Cc1c(NC(=O)c2ccccc2)sc2c1CCCCC2 [D3.042]	33
CCOC(=O)c1ccc(-c2ccc(/C=C3\C(=O)N(CCO)C(=O)C(C#N)=C3C)o2)cc1 [D4.074]	65.9
Nc1nonc1-n1nnc(C(=O)NN=C2c3ccccc3-c3ccccc32)c1-c1ccccc1 [D3.011]	10.1
COc1cc(Br)ccc1OCC(=O)N/N=C/c1cc(Br)c(O)c(O)c1Br [D10.067]	45
COc1cc(Br)c(OCC(=O)N/N=C/c2cc(Br)c(O)c(O)c2Br)c(Br)c1 [D10.046]	29.2
Cc1ccc(C(=O)C2(C)N(O)C(C)C(c3cccs3)=[N+]2[O-])cc1 (stereo not shown) [D6.053]	34.1
CCOC(=O)c1ccc(N2C(=O)CSCC2=O)cc1 [D4.015]	12.2
COc1ccc(C(=O)CS/C2=N/CCCCCC2)cc1 [D1.004]	36.5
Nc1ccc2c(c1)C/C(=C\c1ccco1)C2=O [D3.070]	27.5
CCCOC(=O)c1cc(-c2ccc(/C=C3\C(=O)N(CCCO)C(=O)C(C#N)=C3C)o2)ccc1Cl [D6.092]	76.3

SMILES	IC50 [µM]
CC1=C(C#N)C(=O)N(CC(C)O)C(=O)/C1=C/c1ccc(-c2ccc(Br)cc2)o1 (stereo not shown) [D6.089]	73.8
N#Cc1c(NC(=O)C(C(F)(F)F)C(F)(F)F)sc2c1CCC2 [D3.038]	30.9
C/C(=C\c1ccc(C(C)C)cc1)C1NCC(c2ccc([N+](=O)[O-])cc2)O1 (stereo not shown) [D4.072]	65
Cc1ccc(S(=O)(=O)CNC(=S)c2ccc3ccccc3c2)cc1 [D9.002]	14.5
CCOC(=O)c1c(C)oc2c1c1c(c3ccccc32)OCN(C2CCS(=O)(=O)C2)C1 (stereo not shown) [D6.054]	34.2
Cc1cc(Nc2ccc(N3C(=O)CCCC3=O)cc2[N+](=O)[O-])no1 [D4.025]	20
O=C(Nc1cccc(/N=C/c2cc(I)cc(I)c2O)c1)c1ccco1 [D6.010]	9.2
CCC(=O)O/N=C(/C)c1cc2ccccc2oc1=O [D3.060]	45.9
N#Cc1c(NC(=O)C(C(F)(F)F)C(F)(F)F)sc2c1CCCC2 [D6.058]	39.5
Cc1ccc(C(=O)N/C(=C\c2ccco2)C(=O)N2CCOCC2)cc1C [D12.025]	46.5
CCCC(=O)O/N=C1\C(=O)N(c2ccccc2)c2ccccc21 [D3.021]	15.2
O=C(COc1cccc([N+](=O)[O-])c1)N/N=C/c1ccc(O)c([N+](=O)[O-])c1 [D10.044]	24.4
N#CC1=C(N)C(C#N)(C#N)C(c2ccccc2)C2CNCC=C12 (stereo not shown) [D3.056]	42.7
O=C(/C=C/c1ccco1)c1ccccc1 [D6.029]	19.7
N#CC1=C(N)C(C#N)(C#N)C(c2ccccc2)C2CNCC=C12 (stereo not shown) [D4.007]	6.9
Cn1c(=O)[nH]c(=O)c2c1nc(NCCO)n2Cc1ccccc1Cl [D3.058]	44

Next, values leading:

IC50 [µM]	SMILES
12.2	Brc1cccc(/C=N/Nc2nnc3c(n2)[nH]c2ccccc23)c1 [D10.015]
39.2	CN(C)c1ccc(/C=C(\NC(=O)c2ccccc2)C(=O)N/N=C/c2ccccc2[N+](=O)[O-])cc1 [D10.061]
38	CC(N)C(CC(=O)O)c1ccccc1 (stereo not shown) [D13.003]
19.1	CCOc1cc(/C=N/NC(=O)c2cc(O)c(O)c(O)c2)ccc1O [D10.034]
52.6	COc1ccc(CCN(C)c2ccc(N3C(=O)CCCC3=O)cc2[N+](=O)[O-])cc1OC [D4.062]
52.5	O=C(Oc1csc(-c2cccnc2)n1)C1CC1 [D4.061]
13.2	C/C(=N\NC(=O)CSCc1ccccc1Br)c1ccc(I)cc1 [D10.022]
15.2	CCOC(=O)CC(N)c1cccs1 (stereo not shown) [D6.018]
49	CCCCOC(=O)c1cc(-c2ccc(/C=C3/C(=O)N(CC(C)O)C(=O)C(C#N)=C3C)o2)ccc1Cl (stereo not shown) [D12.027]
28.8	Cc1ccc(/C=N/NC(=O)c2ccc(NC(=O)c3cccc([N+](=O)[O-])c3)cc2)o1 [D10.045]
12.3	COc1ccc(/C=N/NC(=O)c2cc(O)c(O)c(O)c2)cc1COc1cc(C)c(Cl)c(C)c1 [D10.016]
21.8	COc1cc(/C=N/NC(=O)c2ccco2)cc(OC)c1OC(C)=O [D10.041]
32.9	COc1ccc(/C(C)=N/NC(=O)CNc2ccc3ccccc3c2)cc1OC [D10.053]
12.4	O=C(Cn1c2ccccc2c(=O)c2ccccc21)NN=Cc1cc(Br)c(O)c(Br)c1 [D10.018]
62.1	O=C(N/N=C\c1ccc(OCc2ccccc2Cl)cc1)c1ccc2c(c1)OCO2 [D10.090]
48.3	CC1C(=O)N(Cc2ccccc2)C(=O)c2c1nc(N1CCNCC1)n2Cc1ccccc1 (stereo not shown) [D6.069]
56.2	CCOc1ccc(/C=N/NC(=O)c2cc(-c3c(OC)ccc4ccccc34)n[nH]2)cc1 [D4.068]
16.2	CCOc1cc(/C=N/NC(=O)c2cc(C)oc2C)ccc1O [D10.025]
6.6	CCC(=O)Oc1ccc(/C=N/NC(=O)c2ccccc2[N+](=O)[O-])c(OC(=O)CC)c1 [D10.005]

IC50 [µM]	SMILES
55.9	COc1cc(C(=O)Oc2c(Br)cc(Br)cc2/C=N/NC(=O)COc2ccc(C)cc2)cc(OC)c1OC [D10.082]
14.1	C/C(=N/OC(=O)C(C)(C)C)c1cc2ccccc2oc1=O [D11.004]
14	Cc1csc(/C(=N\OC(=O)c2ccc(Br)o2)C(N)=O)n1 [D11.003]
18.9	COc1cc(/C=N/NC(=O)COc2ccc(C(C)(C)CC(C)(C)C)cc2)cc([N+](=O)[O-])c1O [D10.033]
10.1	Nc1nonc1-n1nnc(C(=O)NN=C2c3ccccc3-c3ccccc32)c1-c1ccccc1 [D13.001]
31.3	CCCC(=O)Oc1ccc(N(C(=O)CCC)S(=O)(=O)c2cccs2)cc1 [D9.004]
42	COc1cc(/C=N/NC(=O)CNC(=O)c2ccc(Cl)cc2)ccc1OC(=O)c1cccc(F)c1 [D10.066]
70.1	COc1ccccc1C1NCC(c2ccc([N+](=O)[O-])cc2)O1 (stereo not shown) [D4.077]
49	CCCCOC(=O)c1cc(-c2ccc(/C=C3/C(=O)N(CC(C)O)C(=O)C(C#N)=C3C)o2)ccc1Cl (stereo not shown) [D4.059]
24.3	COc1ccc(/C=N/n2c(N(C(C)=O)C(C)=O)nc(-c3ccccc3)c2-c2ccccc2)cc1 [D4.034]
18.9	CC(C)C1Cc2c(sc3c2c(=O)n(Cc2ccccc2)c2nnc(SCC(=O)O)n32)CO1 (stereo not shown) [D6.037]
30.9	N#Cc1c(CC(=O)C(C(F)(F)F)C(F)(F)F)sc2c1CCC2 [D6.047]
18.9	CCCC(=O)O/N=C(/C)c1cc2ccccc2oc1=O [D11.007]
30.8	CCCn1c(N2CCN(CC(=O)c3c[nH]c4ccccc34)CC2)nc2c1c(=O)[nH]c(=O)n2C [D6.046]
44	Cn1c(=O)c2c(nc(NCCO)n2Cc2ccccc2Cl)n(C)c1=O [D6.063]
55	O=C(N/N=C/C=C/c1ccccc1)c1cc(C2CC2)n[nH]1 [D10.076]
30.8	CCCn1c(N2CCN(CC(=O)c3c(C)n(C)c4ccccc34)CC2)nc2c1c(=O)[nH]c(=O)n2C [D5.023]
43.1	O=C1NC23NC(=O)NC2(N1)c1ccccc1-c1ccccc13 (stereo not shown) [D4.053]
